Results reported in US20260325655A1, “DECREASING THE INTRINSICALLY DISORDERED PROTEIN ALPHA-SYNUCLEIN’S LEVELS BY TARGETING ITS STRUCTURED MRNA WITH A RIBONUCLEASE TARGETING CHIMERA” (University of Florida Research Foundation, Incorporated, priority 2023, published 2026).

Assays:
fully base paired RNA = experiment: MST binding to fully base paired control RNA; conditions: microscale thermophoresis
Procedure: Binding Affinity Measurements: Microscale Thermophoresis (MST). Binding affinity measurements were performed on a Monolith NT.115 MST system (NanoTemper Technologies) with Cy5-labeled oligonucleotides. Briefly, Cy5-labeled RNA (5 nM) was prepared in 1× Folding Buffer and folded by heating at 60° C. for 5 min and then slowly cooling to room temperature. After cooling, Tween-20 was added to a final concentration of 0.1% (v/v). Compound solutions were prepared separately in 30 μL of 1× Assay Buffer at a final concentration of 5 μM (1% (v/v) DMSO), followed by 1:1 serial dilutions in 1× Assay Buffer. RNA and compound solutions were then mixed 1:1 by volume.
Samples were incubated for 20 min at room temperature and then loaded into premium capillaries (NanoTemper Technologies, Cat #MO-K025). The following parameters were used for MST measurement: 5-20% LED power (adjusted to keep fluorescence intensity between 8000 and 18000), 80% MST power, Laser-On time=30 s, and Laser-Off time=5 s. The resulting data were analyzed by calculating the change in thermophoresis as a function of compound concentration and fitted by Equation (3) in MST analysis software (NanoTemper Technologies) to yield the dissociation constant (Kd):
where F is the concentration of fluorescently labeled RNA; unbound and bound refer to the thermophoresis signal at completely unbound and bound state of RNA, respectively; c is the concentration of the compound; f (c) is the thermophoresis signal at compound concentration of c; Kd is the dissociation constant.

SNCA-UTR-Luciferase = experiment: SNCA-UTR luciferase reporter assay; assay type: cell-based, human; conditions: Homo sapiens, M-HeLa; 2 μM; HeLa cells; read-out: decrease of luminescence signal
From the text: (§1) Plasmid constructs and establishment of reporter gene overexpressing cells. Construction of pIRES-Luc-EGFP-puro plasmid and pCDH-α-syn-5′-UTR-Luc-EGFP-puro plasmid used in 5′ UTR-luciferase-based selectivity assay were previously described.^4 Briefly, In-Fusion PCR cloning system (Takara Bio, Mountain View, CA, USA) was used for all plasmid constructions per the manufacturer's instructions. To ensure sequence accuracy, all plasmids generated in this study were confirmed by sequencing.
(§2) Luciferase assay. The effect of compounds on translation of SNCA IRE-containing transcript was measured by using a luciferase reporter assay. HeLa cells (~60% confluency) were transfected with plasmids (2 μg per 60 mm dish) by using JetPrime (Polyplus Transfection) according to the manufacturer's recommended procedures. Approximately 16 h after transfection, the transfection cocktail was removed, and the cells were trypsinized and seeded to 96-well plates (8,000 cells per well). After 6 h, cells were treated as described in Cell Culture. To measure the luciferase signals, the cells were then washed with 1× DPBS, and luciferase activity in each well was measured by using the ONE-Glo Luciferase Assay System (Promega) per the manufacturer's instructions. Luminescence from firefly luciferase reaction was measured using a Biomek FLx800 plate reader.

α-synuclein = α-synuclein protein in iPSC-induced dopaminergic neurons; assay type: cell-based, human
Procedure: (§3) Dopamine neuron induction. For dopamine neuronal induction,^15,16 the dual-SMAD inhibition method^17 was used for floor plate (FP)-based midbrain dopamine (DA) neuron induction with modifications. Prior to differentiation, Matrigel matrix (BD) was thawed at 4° C. overnight or on ice until it is dissolved. Matrigel coated 6-well plates were prepared according to manufacturer's instructions and incubated at 37° C. for at least 1 h before use. iPSCs were dissociated with Accutase (STEMCELL Technologies) and plated (3.5×10^5-4×10^5 cells per cm^2) into a new Matrigel coated plate and grown in mTeSR medium (STEMCELL Technologies) with StemBeads FGF2 (StemCultures) and ROCK inhibitor Y27632 (5 μM, Tocris). After 24 to 48 h, when the cells reached 100% confluency, the differentiation protocol was initiated by feeding the cells with DMEM containing 15% KnockOut Serum Replacement (KSR, Gibco), 2 mM L-glutamine (L-Glut) and 10 μM β-mercaptoethanol for 11 days. […]
ELISA (Enzyme-Linked Immunosorbent Assay). […] After compound treatment, total protein was extracted and quantified as described in Western blotting. The concentration of α-synuclein protein was measured by using Human Alpha-synuclein ELISA Kit (Abcam, ab260052) per the manufacturer's recommendations.

SNCA mRNA = SNCA mRNA in iPSC-induced dopaminergic neurons; assay type: cell-based, human
Procedure: RNA extraction and reverse transcription-quantitative polymerase chain reaction (RT-qPCR). Total RNA was extracted from cells using a Quick-RNA MiniPrep Kit (Zymo Research) per the manufacturer's protocol including DNase treatment. For each sample, 200 ng of RNA was reverse transcribed into cDNA by using a qScript cDNA Synthesis Kit (QuantaBio) according to the manufacturer's instructions. To assess the relative mRNA levels, RT-qPCR was performed in triplicate using SYBR Green PCR mater mix (Applied Biosystems) with a Quant Studio 5 Real-Time PCR system. The relative levels of mRNA were calculated by using the ΔΔCt method as previously described.^8
as §3, with “Tocris).” for “Tocris). After 24 to 48 h, when the cells reached 100% confluency, the differentiation protocol was initiated by feeding the cells with DMEM containing 15% KnockOut Serum Replacement (KSR, Gibco), 2 mM L-glutamine (L-Glut) and 10 μM β-mercaptoethanol for 11 days.”

[1] = test system: control luciferase reporter lacking an IRE; experiment: control luciferase reporter lacking an IRE; assay type: cell-based, human; conditions: reporter lacks IRE / SNCA-UTR sequence
From the text: as §1, §2

For `O=C(CSc1nnc(-c2ccncc2)n1-c1ccc(Br)cc1)Nc1ccc2cn[nH]c2c1` [Synucleozid-2.0], the “binding towards the fully base paired RNA” value (fully base paired RNA) was “no saturable binding”, the inhibition at 2 µM (SNCA-UTR-Luciferase) was ~25% and the “α-synuclein protein levels in dopaminergic neurons (in words)” value (α-synuclein; ELISA, FIG. 3D) was “decreased α-synuclein protein levels”. For the same compound, the “effect on SNCA mRNA levels in dopaminergic neurons (in words)” value (SNCA mRNA) was “no effect”.

In the case of `CCOC(=O)C1=C(Nc2ccccc2)S/C(=C\c2ccc(OCCOCCOCCOCCNC(=O)CCCOc3ccc(-n4c(SCC(=O)Nc5ccc6cn[nH]c6c5)nnc4-c4ccncc4)cc3)c(O)c2)C1=O` [Syn-RiboTAC], the “binding towards the fully base paired RNA” value (fully base paired RNA) is reported as “no saturable binding”, the inhibition at 2 µM (SNCA-UTR-Luciferase) is reported as ~40% and the “inhibition in the control luciferase reporter” value [1] is reported as “Neither compound showed inhibition”. For the same compound, the “decrease of α-synuclein protein levels in dopaminergic neurons” value (α-synuclein; 2 μM, PD patient-derived (SNCA triplication)) was ~ 50% and the “decrease of SNCA transcript levels in dopaminergic neurons” value (SNCA mRNA) was ~ 50%.
